# The supplement of paper PMC10307832
# How the values were obtained:
# Assay in all cases: relative viability (nuclei count vs DMSO), 5 days (fraction); higher = more cells survive
# Sulindac + Foretinib = compound: CC1=C(CC(=O)O)c2cc(F)ccc2/C1=C\c1ccc([S+](C)[O-])cc1 [Sulindac] + COc1cc2c(Oc3ccc(NC(=O)C4(C(=O)Nc5ccc(F)cc5)CC4)cc3F)ccnc2cc1OCCCN1CCOCC1 [Foretinib] (partner 0.25 µM)
# Procedure, shortened: (§1)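 Relative viability divides the nuclei count in treated wells by that in vehicle wells. Lung cancer cell lines were seeded in 1536-well plates, dosed by pin tool the next day, and fixed and stained after 5 days in one step with final 0.05% Triton X-100, 1% formaldehyde and 1 ug/ml Hoechst. Dosing was a single drug or a fixed anchor-drug dose plus five library-drug doses (not always all listed) in √10 steps, and values are medians of duplicate plates imaged at 4×.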
# [1] = compound: CN[C@@H]1C[C@H]2O[C@@](C)([C@@H]1OC)n1c3ccccc3c3c4c(c5c6ccccc6n2c5c31)C(=O)NC4 [Staurosporine] + Nc1nc2[nH]cc(CCc3ccc(C(=O)N[C@@H](CCC(=O)O)C(=O)O)cc3)c2c(=O)[nH]1 [Pemetrexed] (partner 0.2 µM)
# Procedure, shortened: as §1
# [2] = compound: O=c1[nH]cc(F)c(=O)[nH]1 [5-Fluorouracil] + Cc1cc(Nc2cc(N3CCN(C)CC3)nc(Sc3ccc(NC(=O)C4CC4)cc3)n2)n[nH]1 [Tozasertib] (partner 0.1 µM)
# Procedure, shortened: as §1
# [3] = compound: O=c1[nH]cc(F)c(=O)[nH]1 [5-Fluorouracil] + Nc1ncn([C@H]2C[C@H](O)[C@@H](CO)O2)c(=O)n1 [Decitabine] (partner 2 µM)
# Procedure, shortened: as §1
Cell Line,relative viability (Sulindac + Foretinib; first compound 0.08 µM),relative viability (Sulindac + Foretinib; first compound 0.253 µM),relative viability (Sulindac + Foretinib; first compound 2.53 µM),relative viability (Sulindac + Foretinib; first compound 8 µM),relative viability ([1]; first compound 0.005 µM),relative viability ([1]; first compound 0.01581 µM),relative viability ([1]; first compound 0.05 µM),relative viability ([1]; first compound 0.1581 µM),relative viability ([1]; first compound 0.5 µM),relative viability ([2]; first compound 0.02 µM),relative viability ([2]; first compound 0.2 µM),relative viability ([2]; first compound 0.6325 µM),relative viability ([2]; first compound 2 µM),relative viability ([3]; first compound 0.02 µM),relative viability ([3]; first compound 0.2 µM),relative viability ([3]; first compound 0.6325 µM),relative viability ([3]; first compound 2 µM),relative viability (Sulindac + Foretinib; first compound 0.8 µM)
NCI-H2087,1.44,1.1,1.22,1.29,0.548,0.531,0.429,0.171,0.117,0.282,0.236,0.253,0.156,0.244,0.295,0.271,0.224,–
NCI-H2170,1.1,0.547,0.978,1.01,0.247,–,0.243,0.101,0.173,0.796,0.671,0.436,0.32,0.501,0.451,0.439,0.328,1.05
HCC-78,0.512,0.547,0.566,0.556,0.978,0.893,0.882,0.927,0.881,1.46,0.395,0.37,0.264,0.711,0.726,0.427,0.327,0.585
NCI-H1395,0.845,1.02,0.906,1.1,0.789,0.341,0.316,0.31,0.255,0.652,0.837,0.737,0.8,0.802,0.781,0.771,0.736,0.949
H3255,0.962,0.853,0.879,0.827,0.481,0.392,0.305,0.213,0.135,0.63,0.663,0.652,0.497,0.694,0.629,0.645,0.488,0.678
HCC-15,1.19,1.02,0.978,1.33,0.217,0.188,0.189,0.157,0.134,0.396,0.455,0.43,0.232,0.751,0.711,0.63,0.476,0.905
NCI-H838,1.05,1.19,1.06,1.22,0.205,0.148,0.144,0.111,0.112,0.267,0.251,0.243,0.183,0.48,0.447,0.359,0.291,1.03
NCI-H2023,0.969,0.867,0.821,1.07,0.183,0.154,0.0933,0.0756,0.0692,0.441,0.146,0.112,0.0913,0.271,0.141,0.106,0.0886,0.715
NCI-H2342,0.86,0.952,0.948,1.07,0.773,0.746,0.433,0.315,0.319,0.484,0.471,0.626,0.443,0.726,0.682,0.698,0.739,1.02
EMC-BAC-2,0.953,1.05,1.02,1.08,0.362,0.273,0.258,0.255,0.224,0.293,0.292,0.33,0.287,1.01,1.08,0.97,1.01,0.892
LCLC-103H,0.817,0.822,0.734,0.916,0.405,0.238,0.336,0.247,0.213,0.536,0.511,0.305,0.212,0.734,0.636,0.652,0.524,0.681
LK-2,1.73,1.45,–,1.21,0.331,0.255,0.269,0.0688,0.0539,0.169,0.176,0.16,0.189,0.328,0.341,0.334,0.269,–
NCI-H460,1.3,1.12,1.02,1.08,0.065,0.0547,0.0426,0.0415,0.0101,0.459,0.13,0.106,0.0388,0.484,0.38,0.111,0.0586,0.667
NCI-H3122,1.06,0.936,1.01,0.981,0.183,–,0.177,0.167,0.105,0.382,0.356,0.203,0.157,0.432,0.447,0.304,0.214,1.01
NCI-H2126,1.2,1.18,1.01,1.14,0.64,0.262,0.4,0.279,0.211,0.634,0.392,0.316,0.281,0.518,0.306,0.28,0.258,1.06
NCI-H596,0.796,1.05,0.97,0.892,0.485,0.265,0.297,0.27,0.148,0.939,0.845,0.479,0.364,1.15,0.999,0.902,0.706,0.928
LOU-NH91,0.859,0.964,0.935,1.11,0.339,0.304,0.336,0.255,0.274,0.701,0.705,0.564,0.243,0.873,0.874,0.838,0.534,0.876
NCI-H1651,0.899,0.848,0.764,0.88,0.613,0.426,0.274,0.156,0.159,0.626,0.602,0.543,0.441,0.598,0.613,0.321,0.264,–
